Test results reported in paper PMC6268093, “Total Synthesis and Antidepressant Activities of Laetispicine and Its Derivatives” (Molecules, 2012).

Columns and labels:
[1] = system: forced swimming mice (immobility); assay: Forced swimming test in mice; format: in vivo, KM mice; conditions: for inhibition in vivo at 10 mg/kg: Mus musculus, po, mice, 10 mg/kg i.g., 100 × [(control − experiment)/control], read-out: Reduction (%) of immobility time vs control; for Antidepressant activity compared with laetispicine (in words): forced swimming test in mice, 10 mg/Kg
Method: KM mice (18–22 g) of either sex were obtained from Laboratory Animal Center of the College of Medicine, Fudan University. Animals were housed in standard environmental conditions with free access to food and water. The animals were used only once throughout the study. They were allowed to acclimatize to the laboratory seven days before pharmacological tests. The experiment procedures were conducted in compliance with the National Institutes of Health Guide for Care and Use of the laboratory Animals.
Tween 80 was purchased from Sinopharm Chemical Reagent Co., Ltd (Shanghai, China), fluoxetine from Shanghai Zhongxi Pharmaceutical Co., Ltd. All other reagents were of analytical grade. All drugs were dissolved in saline with 2% Tween 80. Drugs (10 mg/kg/2 mL) were administered by intragastric (i.g.) route 60 min before the forced swimming tests. The control group received only saline with 2% Tween 80 simultaneously.
The forced swimming test adopted here is a modification of the method described by Porsoltetal. Briefly, mice were individually forced to swim for 15 min in glass cylinders (height: 20 cm, diameter: 14 cm), containing 10 cm of water at 25 °C, which is a pre-test, and then mice were removed and dried before being returned to cages. Twenty-four hours later, mice were placed in the cylinders again for a 6-min test in the same system depicted above. The duration of immobility was recorded during the last 4 min of the 6-min testing period.
Data obtained were expressed as mean ± SEM and analyzed by analysis of variance (ANOVA) followed by Bonferroni’s test. p-values less than 0.05 (p < 0.05) were used as the significant level. The percent of inhibition was determined using the following formula: Inhibition (%) = 100 × [(control − experiment) / control].

hERG potassium channel [2] = target: T1, hERG potassium channel (Homo sapiens, UniProt Q12809); assay: hERG inhibition, automated QPatch patch clamp in CHO cells stably expressing hERG
Method: (§1) A CHO cell line stably expressing hERG potassium channels were voltage clamped using automated QPatch electrophysiology system. Test items were dissolved in DMSO and diluted with external recording buffer. […] Each cell acted as its own control. […] The extent of inhibition of channel was expressed as a percentage of the control response (minus the test compound).

hERG potassium channel [3] = target: T1, hERG potassium channel; assay: in vitro
Method: as §1

T1 sequence (Q12809 whole entry): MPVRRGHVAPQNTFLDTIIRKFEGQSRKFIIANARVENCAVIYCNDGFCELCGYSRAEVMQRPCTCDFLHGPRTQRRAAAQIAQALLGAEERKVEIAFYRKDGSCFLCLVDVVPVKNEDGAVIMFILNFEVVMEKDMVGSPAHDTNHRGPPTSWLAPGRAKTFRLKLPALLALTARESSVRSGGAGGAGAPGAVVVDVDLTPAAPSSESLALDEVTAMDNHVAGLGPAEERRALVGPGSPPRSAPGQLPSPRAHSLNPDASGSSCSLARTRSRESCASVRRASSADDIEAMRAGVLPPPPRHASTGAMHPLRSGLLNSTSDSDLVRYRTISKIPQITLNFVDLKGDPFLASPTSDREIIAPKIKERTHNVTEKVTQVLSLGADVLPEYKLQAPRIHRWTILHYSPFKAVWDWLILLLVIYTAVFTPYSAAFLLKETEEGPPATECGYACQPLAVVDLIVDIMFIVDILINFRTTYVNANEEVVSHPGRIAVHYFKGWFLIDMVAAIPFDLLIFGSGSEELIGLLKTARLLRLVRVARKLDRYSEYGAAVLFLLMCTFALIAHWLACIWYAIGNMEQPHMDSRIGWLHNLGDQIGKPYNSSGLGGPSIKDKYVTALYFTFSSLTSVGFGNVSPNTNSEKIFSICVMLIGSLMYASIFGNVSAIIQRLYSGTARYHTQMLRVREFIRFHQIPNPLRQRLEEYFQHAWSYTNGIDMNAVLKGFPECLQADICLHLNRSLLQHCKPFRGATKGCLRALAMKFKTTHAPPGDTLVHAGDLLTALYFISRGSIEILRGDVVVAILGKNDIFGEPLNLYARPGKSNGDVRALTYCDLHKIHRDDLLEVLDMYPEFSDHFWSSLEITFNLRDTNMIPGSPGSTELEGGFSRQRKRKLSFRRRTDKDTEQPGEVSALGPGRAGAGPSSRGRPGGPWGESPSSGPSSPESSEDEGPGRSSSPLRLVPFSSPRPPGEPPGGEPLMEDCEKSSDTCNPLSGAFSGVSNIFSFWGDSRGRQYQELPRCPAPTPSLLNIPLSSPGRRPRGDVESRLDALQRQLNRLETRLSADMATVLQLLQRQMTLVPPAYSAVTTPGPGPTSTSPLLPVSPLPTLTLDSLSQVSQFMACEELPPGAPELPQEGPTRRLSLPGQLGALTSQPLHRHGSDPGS

Row | Structure (SMILES) | inhibition in vivo at 10 mg/kg [1] [%] | Antidepressant activity compared with laetispicine (in words) [1] | melting point [°C] | inhibition at 1 µM (hERG potassium channel [2]; human, CHO cells stably expressing hERG) [%] | inhibition at 1 µM (hERG potassium channel [3]) [%] | inhibition at 10 µM (hERG potassium channel [3]) [%] | inhibition at 100 µM (hERG potassium channel [3]) [%] | IC50 (hERG potassium channel [2]) [µM]
1 | COc1cc(C/C=C/CCC/C=C/C=C/C(=O)NCC(C)C)cc(OC)c1OC [Compound 1e, N-Isobutyl-11-(3,4,5-trimethoxyphenyl)undeca-2E,4E,9E-trienamide] | 27 | less antidepressant activities than laetispicine | 72 to 73 |  |  |  |  | 
2 | COc1cc(N)c(Cl)cc1C(=O)NC1CCN(CCCOc2ccc(F)cc2)CC1OC (stereo not shown) [Cisapride, reference compound] |  |  |  | 97.9 ± 0.5 |  |  |  | 
3 | CC(C)CNC(=O)/C=C/C=C/CCC/C=C/Cc1ccccc1 [Compound 1b, N-Isobutyl-11-phenylundeca-2E,4E,9E-trienamide] | 39 |  | 80 to 82 |  |  |  |  | 
4 | CC(C)CNC(=O)/C=C/C=C/CCC/C=C/Cc1ccc2c(c1)OCCO2 [Compound 1g, N-Isobutyl-11-(2,3-dihydrobenzo [1, 4]dioxin-6-yl)undeca-2E,4E,9E-trienamide] | 29 | less antidepressant activities than laetispicine | 69 to 72 |  |  |  |  | 
5 | CC(C)CNC(=O)/C=C/C=C/CCC/C=C/Cc1ccc2c(c1)OCO2 [Laetispicine (1a), Laetispicine] | 33 |  |  |  |  |  |  | 
6 | CC(C)CNC(=O)/C=C/C=C/CCC/C=C/Cc1ccc(Cl)cc1 [Compound 1h, N-Isobutyl-11-(4-chlorophenyl)undeca-2E,4E,9E-trienamide] | 52 | better antidepressant activities than that of laetispicine |  |  | 8 ± 2.3 | 13.9 ± 2 | 24.2 ± 4.9 | > 100
7 | COc1ccc(C/C=C/CCC/C=C/C=C/C(=O)NCC(C)C)cc1 [Compound 1c, N-Isobutyl-11-(4-methoxyphenyl)undeca-2E,4E,9E-trienamide] | 5 | lost their antidepressant activities entirely |  |  |  |  |  | 
8 | CC(C)CNC(=O)/C=C/C=C/CCC/C=C/Cc1ccc(F)cc1 [Compound 1i, N-isobutyl-11-(4-fluorophenyl)undeca-2E,4E,9E-trienamide] | 43 | better antidepressant activities than that of laetispicine | 75 to 77 |  | 7.1 ± 0.7 | 10.7 ± 0.1 | 17.7 ± 1.5 | > 100
9 | CNCCC(Oc1ccc(C(F)(F)F)cc1)c1ccccc1 (stereo not shown) [Fluoxetine, fluoxetine, reference compound] | 0 |  |  |  |  |  |  | 
10 | CC(C)CNC(=O)/C=C/C=C/CCC/C=C/Cc1ccc2c(c1)CCO2 [Compound 1f, N-Isobutyl-11-(2,3-dihydrobenzofuran-5-yl)undeca-2E,4E,9E-trienamide] | 5 | lost their antidepressant activities entirely |  |  |  |  |  | 
11 | COc1ccc(C/C=C/CCC/C=C/C=C/C(=O)NCC(C)C)cc1OC [Compound 1d, N-Isobutyl-11-(3,4-dimethoxyphenyl)undeca-2E,4E,9E-trienamide] | 6 | lost their antidepressant activities entirely | 61 to 63 |  |  |  |  | 
